From US20060154922A1, “Muscarinic agonists” (ELILILLY AND COMPANY, priority 2003, published 2006) come the findings set out here.

Where two headings read alike, the source gives them in different places.

The test system of the experiment is Male Sprague-Dawley rats. As to conditions: six-hour delay.

Turning to `Nc1c2c(nc3ccccc13)CCCC2` [Tacrine, tacrine], the “retention (errors in the retention session)” value reads like this: (3 mg/kg s.c. immediately after the sampling phase) “not”; (10 mg/kg s.c. immediately after the sampling phase) “significantly improved retention”.
